Data as given in the supplement of paper PMC10331698.
± gives the standard deviation of the averaged measurements.

What was measured:
Experiment in all cases: level (log10 ratio to DMSO vehicle control); higher = higher biomarker level / cell amount than vehicle control
Settings in all cases: in DMSO
[1] = compound: OCC(F)(F)C(F)(F)C(F)(F)C(F)(F)C(F)(F)C(F)F [1H,1H,7H-Dodecafluoro-1-heptanol]
Method: (§1)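 BioMAP Diversity Plus panel of 12 human primary cell co-culture systems (3C, 4H, LPS, SAg, BT, BF4T, BE3C, CASM3C, HDF3CGF, KF3CT, MyoF, Mphg). Compounds were added 1 h before stimulation and left for 24 h (MyoF 48 h; BT 72 h for soluble read-outs or 6 d for IgG). Biomarkers were read by ELISA, cytotoxicity by SRB, PBMC viability and proliferation by Alamar Blue. Each well value was divided by the mean of 8 DMSO control wells on the same plate and log10 transformed; duplicate blinded samples were tested at 4 concentrations.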

[2] = compound: O=P(O)(O)CCC(F)(F)C(F)(F)C(F)(F)C(F)(F)C(F)(F)C(F)(F)C(F)(F)C(F)(F)F [((Perfluorooctyl)ethyl)phosphonic acid]
Method: as §1

[3] = compound: O=C(O)C(F)(F)C(F)(F)C(F)(F)C(=O)O [Hexafluoroglutaric acid]
Method: as §1

[4] = compound: O=C(O)C(F)(F)C(F)(F)C(F)(F)C(F)(F)C(F)(F)C(F)(F)C(F)(F)C(F)(F)C(F)(F)C(F)(F)C(F)(F)C(F)(F)F [Perfluorotridecanoic acid]
Method: as §1

[5] = compound: O=C(O)CCC(F)(F)C(F)(F)C(F)(F)F [3:3 Fluorotelomer carboxylic acid]
Method: as §1

[6] = compound: O=S(=O)(O)C(F)(F)C(F)(F)C(F)(F)C(F)(F)C(F)(F)C(F)(F)C(F)(F)C(F)(F)F [Potassium perfluorooctanesulfonate]
Method: as §1

Which results are given for CASM3C:SRB?
level (log10) ([1]; 6700 nM): -0.0045 ± 0.00071; level (log10) ([1]; 20000 nM): -0.006 ± 0.0028; level (log10) ([1]; 60000 nM): -0.0015 ± 0.0021; level (log10) ([2]; 6700 nM): -0.0115 ± 0.0035; level (log10) ([2]; 20000 nM): -0.017 ± 0.0028; level (log10) ([2]; 60000 nM): -0.008 ± 0.0085; level (log10) ([3]; 6700 nM): -0.001 ± 0.0028; level (log10) ([3]; 20000 nM): -0.0035 ± 0.0021; level (log10) ([3]; 60000 nM): 0.0065 ± 0.005; level (log10) ([4]; 1500 nM): 0.0075 ± 0.016; level (log10) ([4]; 4400 nM): 0.005 ± 0.0042; level (log10) ([4]; 13000 nM): -0.002 ± 0.0014; level (log10) ([4]; 40000 nM): -0.0065 ± 0.00071; level (log10) ([5]; 6700 nM): 0.005 ± 0.016; level (log10) ([5]; 20000 nM): 0.002 ± 0.014; level (log10) ([5]; 60000 nM): -0.0055 ± 0.011; level (log10) ([6]; 6700 nM): 0.011 ± 0.0042; level (log10) ([6]; 20000 nM): 0.004; level (log10) ([6]; 60000 nM): 0.006

With KF3CT:CXCL10/IP-10 as the test system, how does the “level (log10)” value ([1]; 6700 nM) read?
The value was 0.004.

And the “level (log10)” value ([1]; 20000 nM)?
Its value is 0 ± 0.0014.

What about the “level (log10)” value ([1]; 60000 nM) of the same test system?
The value was -0.0055 ± 0.005.

What about the “level (log10)” value ([2]; 6700 nM) of the same test system?
The value was 0.0105 ± 0.028.

What about the “level (log10)” value ([2]; 20000 nM) of the same test system?
Its value is 0.023 ± 0.013.

And the “level (log10)” value ([2]; 60000 nM)?
Its value is 0.0205 ± 0.005.

And the “level (log10)” value ([3]; 6700 nM)?
Its value is -0.001.

What about the “level (log10)” value ([3]; 20000 nM) of the same test system?
Its value is -0.01 ± 0.0014.

What about the “level (log10)” value ([3]; 60000 nM) of the same test system?
The value was 0.005 ± 0.0014.

What about the “level (log10)” value ([4]; 1500 nM) of the same test system?
The value was -0.009 ± 0.0071.

What about the “level (log10)” value ([4]; 4400 nM) of the same test system?
The value was -0.011 ± 0.0028.

And the “level (log10)” value ([4]; 13000 nM)?
The value was -0.015 ± 0.017.

What about the “level (log10)” value ([4]; 40000 nM) of the same test system?
Its value is -0.06 ± 0.044.

And the “level (log10)” value ([5]; 6700 nM)?
The value was -0.0015 ± 0.0035.

And the “level (log10)” value ([5]; 20000 nM)?
The value was -0.008 ± 0.0057.

What about the “level (log10)” value ([5]; 60000 nM) of the same test system?
Its value is -0.0045 ± 0.0035.

What about the “level (log10)” value ([6]; 6700 nM) of the same test system?
Its value is -0.0075 ± 0.032.

And the “level (log10)” value ([6]; 20000 nM)?
The value was -0.0015 ± 0.016.

And the “level (log10)” value ([6]; 60000 nM)?
Its value is -0.0335 ± 0.012.

For MyoF:TIMP-1, which “level (log10)” value ([1]; 6700 nM) is on record?
The value was -0.013 ± 0.018.

And the “level (log10)” value ([1]; 20000 nM)?
Its value is -0.0025 ± 0.023.

What about the “level (log10)” value ([1]; 60000 nM) of the same test system?
The value was -0.0065 ± 0.046.

And the “level (log10)” value ([2]; 6700 nM)?
Its value is 0.0415 ± 0.0078.

What about the “level (log10)” value ([2]; 20000 nM) of the same test system?
Its value is 0.0765 ± 0.0078.

What about the “level (log10)” value ([2]; 60000 nM) of the same test system?
Its value is 0.0715 ± 0.026.

What about the “level (log10)” value ([3]; 6700 nM) of the same test system?
Its value is 0.001 ± 0.014.

What about the “level (log10)” value ([3]; 20000 nM) of the same test system?
The value was -0.0545 ± 0.053.

And the “level (log10)” value ([3]; 60000 nM)?
Its value is -0.0205 ± 0.0035.

And the “level (log10)” value ([4]; 1500 nM)?
The value was 0.004 ± 0.0071.

And the “level (log10)” value ([4]; 4400 nM)?
Its value is 0.001 ± 0.011.

And the “level (log10)” value ([4]; 13000 nM)?
Its value is 0.025 ± 0.0028.

What about the “level (log10)” value ([4]; 40000 nM) of the same test system?
Its value is 0.0325 ± 0.0064.

And the “level (log10)” value ([5]; 6700 nM)?
Its value is -0.053 ± 0.067.

And the “level (log10)” value ([5]; 20000 nM)?
Its value is -0.033 ± 0.059.

What about the “level (log10)” value ([5]; 60000 nM) of the same test system?
The value was -0.0275 ± 0.074.

What about the “level (log10)” value ([6]; 6700 nM) of the same test system?
Its value is 0.069 ± 0.02.

And the “level (log10)” value ([6]; 20000 nM)?
The value was 0.0605 ± 0.03.

What about the “level (log10)” value ([6]; 60000 nM) of the same test system?
Its value is 0.111 ± 0.0021.

How did the “level (log10)” value ([1]; 6700 nM) turn out when CASM3C:CD141/Thrombomodulin was run?
The value was 0.0095 ± 0.052.

And the “level (log10)” value ([1]; 20000 nM)?
Its value is 0.0055 ± 0.0064.

What about the “level (log10)” value ([1]; 60000 nM) of the same test system?
The value was -0.0055 ± 0.047.

And the “level (log10)” value ([2]; 6700 nM)?
Its value is -0.01 ± 0.0071.

And the “level (log10)” value ([2]; 20000 nM)?
The value was -0.014 ± 0.0042.

What about the “level (log10)” value ([2]; 60000 nM) of the same test system?
Its value is 0.0245 ± 0.015.

What about the “level (log10)” value ([3]; 6700 nM) of the same test system?
The value was -0.008 ± 0.0099.

And the “level (log10)” value ([3]; 20000 nM)?
The value was -0.0175 ± 0.0021.

And the “level (log10)” value ([3]; 60000 nM)?
The value was 0.043 ± 0.065.

What about the “level (log10)” value ([4]; 1500 nM) of the same test system?
The value was 0.0215 ± 0.11.

What about the “level (log10)” value ([4]; 4400 nM) of the same test system?
Its value is -0.0185 ± 0.084.

And the “level (log10)” value ([4]; 13000 nM)?
The value was 0.03 ± 0.062.

What about the “level (log10)” value ([4]; 40000 nM) of the same test system?
Its value is 0.193 ± 0.015.

And the “level (log10)” value ([5]; 6700 nM)?
The value was -0.0065 ± 0.005.

What about the “level (log10)” value ([5]; 20000 nM) of the same test system?
Its value is -0.0085 ± 0.011.

And the “level (log10)” value ([5]; 60000 nM)?
Its value is -0.0185 ± 0.0035.

What about the “level (log10)” value ([6]; 6700 nM) of the same test system?
The value was 0.0235 ± 0.0021.

And the “level (log10)” value ([6]; 20000 nM)?
The value was -0.004 ± 0.018.

What about the “level (log10)” value ([6]; 60000 nM) of the same test system?
Its value is -0.021 ± 0.031.

KF3CT:CCL2/MCP-1 was tested. Which “level (log10)” value ([1]; 6700 nM) did it give?
The value was -0.0055 ± 0.021.

What about the “level (log10)” value ([1]; 20000 nM) of the same test system?
The value was -0.0155 ± 0.015.

What about the “level (log10)” value ([1]; 60000 nM) of the same test system?
The value was 0.004 ± 0.028.

And the “level (log10)” value ([2]; 6700 nM)?
The value was -0.0355 ± 0.0064.

And the “level (log10)” value ([2]; 20000 nM)?
Its value is -0.0255 ± 0.0078.

What about the “level (log10)” value ([2]; 60000 nM) of the same test system?
The value was -0.038 ± 0.042.

And the “level (log10)” value ([3]; 6700 nM)?
The value was -0.0255 ± 0.04.

And the “level (log10)” value ([3]; 20000 nM)?
Its value is -0.0325 ± 0.067.

What about the “level (log10)” value ([3]; 60000 nM) of the same test system?
The value was -0.0245 ± 0.0021.

What about the “level (log10)” value ([4]; 1500 nM) of the same test system?
Its value is 0.003 ± 0.076.

And the “level (log10)” value ([4]; 4400 nM)?
The value was -0.007 ± 0.02.

And the “level (log10)” value ([4]; 13000 nM)?
Its value is -0.021 ± 0.031.

And the “level (log10)” value ([4]; 40000 nM)?
Its value is 0.018 ± 0.0042.

What about the “level (log10)” value ([5]; 6700 nM) of the same test system?
The value was -0.005 ± 0.025.

And the “level (log10)” value ([5]; 20000 nM)?
Its value is -0.0135 ± 0.016.

What about the “level (log10)” value ([5]; 60000 nM) of the same test system?
The value was 0.0225 ± 0.046.

What about the “level (log10)” value ([6]; 6700 nM) of the same test system?
Its value is -0.009 ± 0.011.

What about the “level (log10)” value ([6]; 20000 nM) of the same test system?
Its value is -0.012 ± 0.0014.

What about the “level (log10)” value ([6]; 60000 nM) of the same test system?
Its value is 0.001 ± 0.05.
